≈ marks a conversion by molar mass, not a printed value. Each block holds one compound with its values, some of them ahead of it.
Assays:
Type in all cases: functional
[1] = test system: Klebsiella pneumoniae; assay: Antimicrobial activity against Klebsiella pneumoniae at 1 ug/ul after 24 hr by agar diffusion method
[2] = test system: Pseudomonas aeruginosa; assay: Antimicrobial activity against Pseudomonas aeruginosa at 1 ug/ul after 24 hr by agar diffusion method
[3] = test system: Escherichia coli; assay: Antimicrobial activity against Escherichia coli at 1 ug/ul after 24 hr by agar diffusion method
[4] = test system: Bacillus cereus; assay: Antimicrobial activity against Bacillus cereus at 1 ug/ul after 24 hr by agar diffusion method
[5] = test system: Bacillus subtilis; assay: Antimicrobial activity against Bacillus subtilis at 1 ug/ul after 24 hr by agar diffusion method
[6] = test system: Staphylococcus aureus; assay: Antimicrobial activity against Staphylococcus aureus at 1 ug/ul after 24 hr by agar diffusion method
[7] = Antioxidant activity assessed as DPPH scavenging activity after 20 min by spectrophotometry

IC50 [7]: 142.86 µg/mL (≈ 536 µM)
Compound: COc1ccccc1-c1oc2ccccc2c(=O)c1C
growth inhibition (GI) [1]: 62% | growth inhibition (GI) [2]: 45% | growth inhibition (GI) [3]: 52% | growth inhibition (GI) [4]: 51% | growth inhibition (GI) [5]: 59% | growth inhibition (GI) [6]: 61%

IC50 [7]: 102.04 µg/mL (≈ 408 µM)
Compound: Cc1ccc(-c2oc3ccccc3c(=O)c2C)cc1
growth inhibition (GI) [1]: 60% | growth inhibition (GI) [2]: 43% | growth inhibition (GI) [3]: 42% | growth inhibition (GI) [4]: 62% | growth inhibition (GI) [5]: 38% | growth inhibition (GI) [6]: 60%

IC50 [7]: 58.82 µg/mL (≈ 199 µM)
Compound: Cc1c(-c2ccc(N(C)C)cc2)oc2cc(O)ccc2c1=O
growth inhibition (GI) [1]: 50% | growth inhibition (GI) [2]: 51% | growth inhibition (GI) [3]: 29% | growth inhibition (GI) [4]: 57% | growth inhibition (GI) [5]: 50% | growth inhibition (GI) [6]: 55%

IC50 [7]: 156.25 µg/mL (≈ 624 µM)
Compound: Cc1ccccc1-c1oc2ccccc2c(=O)c1C
growth inhibition (GI) [1]: 40% | growth inhibition (GI) [2]: 52% | growth inhibition (GI) [3]: 40% | growth inhibition (GI) [4]: 50% | growth inhibition (GI) [5]: 49% | growth inhibition (GI) [6]: 53%

IC50 [7]: 100 µg/mL (≈ 376 µM)
Compound: COc1ccc(-c2oc3ccccc3c(=O)c2C)cc1
growth inhibition (GI) [1]: 60% | growth inhibition (GI) [2]: 46% | growth inhibition (GI) [3]: 41% | growth inhibition (GI) [4]: 68% | growth inhibition (GI) [5]: 46% | growth inhibition (GI) [6]: 66%

IC50 [7]: 111.11 µg/mL (≈ 353 µM)
Compound: Cc1c(-c2ccc(Br)cc2)oc2ccccc2c1=O
growth inhibition (GI) [1]: 72% | growth inhibition (GI) [2]: 51% | growth inhibition (GI) [3]: 27% | growth inhibition (GI) [4]: 62% | growth inhibition (GI) [5]: 82% | growth inhibition (GI) [6]: 58%

IC50 [7]: 106.38 µg/mL (≈ 450 µM)
Compound: Cc1c(-c2ccccc2)oc2ccccc2c1=O [3-METHYL-2-PHENYL-4H-CHROMEN-4-ONE]
growth inhibition (GI) [1]: 75% | growth inhibition (GI) [2]: 48% | growth inhibition (GI) [3]: 41% | growth inhibition (GI) [4]: 80% | growth inhibition (GI) [5]: 44% | growth inhibition (GI) [6]: 47%

The remaining lines, values behind:

Compound: Cc1c(-c2ccccc2F)oc2ccccc2c1=O
growth inhibition (GI) [1]: 52% | growth inhibition (GI) [2]: 47% | growth inhibition (GI) [3]: 47% | growth inhibition (GI) [4]: 60% | growth inhibition (GI) [5]: 26% | growth inhibition (GI) [6]: 55% | IC50 [7]: 208.3 µg/mL (≈ 819 µM)

Compound: Cc1cccc(-c2oc3ccccc3c(=O)c2C)c1
growth inhibition (GI) [1]: 70% | growth inhibition (GI) [2]: 56% | growth inhibition (GI) [3]: 50% | growth inhibition (GI) [4]: 80% | growth inhibition (GI) [5]: 69% | growth inhibition (GI) [6]: 76% | IC50 [7]: 250 µg/mL (≈ 999 µM)

Compound: COc1cccc(-c2oc3ccccc3c(=O)c2C)c1
growth inhibition (GI) [1]: 40% | growth inhibition (GI) [2]: 59% | growth inhibition (GI) [3]: 50% | growth inhibition (GI) [4]: 65% | growth inhibition (GI) [5]: 74% | growth inhibition (GI) [6]: 43% | IC50 [7]: 156.25 µg/mL (≈ 587 µM)

Compound: Cc1c(-c2ccccc2O)oc2ccccc2c1=O
growth inhibition (GI) [1]: 70% | growth inhibition (GI) [2]: 43% | growth inhibition (GI) [3]: 38% | growth inhibition (GI) [4]: 50% | growth inhibition (GI) [5]: 83% | growth inhibition (GI) [6]: 70% | IC50 [7]: 79.37 µg/mL (≈ 315 µM)

Compound: Cc1c(-c2ccc(N(C)C)cc2)oc2ccccc2c1=O
growth inhibition (GI) [1]: 50% | growth inhibition (GI) [2]: 46% | growth inhibition (GI) [3]: 51% | growth inhibition (GI) [4]: 50% | growth inhibition (GI) [5]: 55% | growth inhibition (GI) [6]: 58% | IC50 [7]: 104.16 µg/mL (≈ 373 µM)

Compound: Cc1c(-c2ccccc2Cl)oc2ccccc2c1=O
growth inhibition (GI) [1]: 59% | growth inhibition (GI) [2]: 44% | growth inhibition (GI) [3]: 51% | growth inhibition (GI) [4]: 60% | growth inhibition (GI) [5]: 25% | growth inhibition (GI) [6]: 57% | IC50 [7]: 192.3 µg/mL (≈ 710 µM)

Compound: Cc1c(-c2ccc(O)cc2)oc2ccccc2c1=O
growth inhibition (GI) [1]: 80% | growth inhibition (GI) [2]: 37% | growth inhibition (GI) [3]: 47% | growth inhibition (GI) [4]: 81% | growth inhibition (GI) [5]: 56% | growth inhibition (GI) [6]: 74% | IC50 [7]: 104 µg/mL (≈ 412 µM)

Compound: COc1ccc2c(=O)c(C)c(-c3ccc(Cl)cc3)oc2c1
growth inhibition (GI) [1]: 87% | growth inhibition (GI) [2]: 28% | growth inhibition (GI) [3]: 28% | growth inhibition (GI) [4]: 90% | growth inhibition (GI) [5]: 46% | growth inhibition (GI) [6]: 65% | IC50 [7]: 80.64 µg/mL (≈ 268 µM)

Compound: Cc1c(-c2ccc([N+](=O)[O-])cc2)oc2ccccc2c1=O
growth inhibition (GI) [1]: 85% | growth inhibition (GI) [2]: 57% | growth inhibition (GI) [3]: 31% | growth inhibition (GI) [4]: 89% | growth inhibition (GI) [5]: 60% | growth inhibition (GI) [6]: 77% | IC50 [7]: 131.57 µg/mL (≈ 468 µM)

Compound: Cc1c(-c2ccccc2Br)oc2ccccc2c1=O
growth inhibition (GI) [1]: 78% | growth inhibition (GI) [2]: 42% | growth inhibition (GI) [3]: 34% | growth inhibition (GI) [4]: 80% | growth inhibition (GI) [5]: 39% | growth inhibition (GI) [6]: 81% | IC50 [7]: 70.42 µg/mL (≈ 223 µM)

Compound: Cc1c(-c2ccc(Cl)cc2)oc2ccccc2c1=O
growth inhibition (GI) [1]: 81% | growth inhibition (GI) [2]: 47% | growth inhibition (GI) [3]: 33% | growth inhibition (GI) [4]: 85% | growth inhibition (GI) [5]: 68% | growth inhibition (GI) [6]: 74% | IC50 [7]: 98.04 µg/mL (≈ 362 µM)

Compound: Cc1c(-c2ccc(F)cc2)oc2ccccc2c1=O
growth inhibition (GI) [1]: 70% | growth inhibition (GI) [2]: 48% | growth inhibition (GI) [3]: 31% | growth inhibition (GI) [4]: 75% | growth inhibition (GI) [5]: 81% | growth inhibition (GI) [6]: 73% | IC50 [7]: 113.64 µg/mL (≈ 447 µM)

Compound: COc1ccc2c(=O)c(C)c(-c3ccccc3)oc2c1
growth inhibition (GI) [1]: 41% | growth inhibition (GI) [2]: 51% | growth inhibition (GI) [3]: 34% | growth inhibition (GI) [4]: 50% | growth inhibition (GI) [5]: 63% | growth inhibition (GI) [6]: 59% | IC50 [7]: 200 µg/mL (≈ 751 µM)

Compound: O=C1O[C@H]([C@@H](O)CO)C(O)=C1O [ASCORBIC ACID]
IC50 [7]: 17.6 µg/mL (≈ 99.9 µM)
